Laboratory results as given in the NIST ThermoML archive (doi:10.1021/acs.jced.8b00566).
Numbers after ± are expanded uncertainties.

What was measured:
[1] = Crystal; DSC
[2] = Molar enthalpy of transition or fusion; details: Crystal; DSC

Compound | Triple point temperature [1] [K] | Molar enthalpy of transition or fusion [2] [kcal/mol]
CC(=O)O[C@H]1CC[C@@]2(C)C(=CC[C@@H]3[C@@H]2CC[C@]2(C)C(c4cccnc4)=CC[C@@H]32)C1 [abiraterone acetate] | 419.3 ± 0.8 | 6.17 ± 0.239
C[C@]12CC[C@H](O)CC1=CC[C@@H]1[C@@H]2CC[C@]2(C)C(c3cccnc3)=CC[C@@H]12 [abiraterone] | 501.4 ± 0.8 | 10.8 ± 0.287
